Reference: patent publication US20230124720A1, “APPLICATION OF ACRIDINEDIONE COMPOUND IN PREPARATION OF ANTI-DIABETIC DRUGS” (THE FOURTH MILITARY MEDICAL UNIVERSITY, priority 2020, published 2023)

Tested on: STZ-induced T2DM rats
Experiment: Oral glucose tolerance test (OGTT) in T2DM rats
Assay type: in vivo, rat
Details: artificially induced T2DM rats
Description: 150 male SD rats, housed in cages in a clean constant temperature (23±2° C.) and humidity (55±10%) animal house, were manually adjusted on a daily 12 h/12 h diurnal light cycle with free access to water. After 3 days of adaptive feeding, 150 rats were randomly divided into normal and model groups. The normal (Con, n=15) group of rats remained on raw chow and the model group (n=135) of rats were given high fat high sugar chow. All rats were fed twice daily and the amount of feed was adjusted as needed to ensure adequate feed. After 8 weeks of group feeding, the model group rats were given an intraperitoneal injection of 25 mg/kg STZ solution with a 12 h fast prior to injection. After injection, feeding was continued as in the original method, blood was taken from the tail vein at 72 h for blood glucose measurement, and rats with fasting blood glucose levels ≥11.1 mmol/L on different days were screened for successful artificial induction of T2DM and administered in groups for the next experiment. 135 rats with successful modeling were randomly divided into 9 groups: […] […] Relevant indicators of lipid metabolism were measured after the end of the study. At the final week of the Oral Glucose Tolerance Test (OGTT) test, each group of rats was fasted from water 16 h after gavage administration and the fasting blood glucose value (as 0 min) was measured for each rat. […]

**Q.** Which “glucose tolerance (OGTT, in words)” value does the source give for CC1(C)CC(=O)C2=C(C1)NC1=C(C(=O)CC(C)(C)C1)C2c1ccc(OCc2ccc(C(=O)O)cc2)c(Br)c1 [ADD-16] here?
**A.** Its value is “increase glucose tolerance”.
